Laboratory results as given in patent publication US20230023070A1, “Therapy for the Treatment of Cancer” (Celegene Corporation, priority 2019, published 2023).
“Also recorded” adds a separate entry of the source.

Tests used:
MM1.S cells = assay: Anti-proliferative activity by 3H-thymidine incorporation, combination with bortezomib; type: cell-based; settings: 3 days, bortezomib 62.5 and 125.0 pM, pomalidomide 0.001-1.0 μM or Compound A-S 0.1-10.0 nM
Protocol: The anti-proliferative activity of pomalidomide (treatment of cells with 0.001-1.0 μM) combined with bortezomib (62.5 and 125.0 pM) or Compound A-S (treatment of cells with 0.1-10.0 nM) combined with bortezomib (62.5 and 125.0 pM) was measured by 3H-thymidine incorporation in MM1.S cells after 3 days of treatment in each condition. Combination indices (CI) were calculated using the Chou-Talalay Method for each combination. CI values below 1 indicated synergistic activity of combination.

KMS-12BM cells = assay: Apoptosis by flow cytometry, Annexin-V and ToPro3 staining, after proteasome inhibitor pulse; type: cell-based; settings: then 3 days treatment, AnnV+/ToPro3+; for apoptosis / cell killing in combination with bortezomib: 1 hour pulse with bortezomib; for apoptosis / cell killing in combination with carfilzomib: 1 hour pulse with carfilzomib
Protocol: Apoptosis was measured in KMS-12BM cells by flow cytometry using Annexin-V (AnnV+; x-axis) and ToPro3+ (y-axis) staining after either vehicle (DMSO), pomalidomide (POM) or Compound A-S treatment over 3 days following 1 hour pulse treatment with DMSO, Bortezomib (BORT) or Carfilzomib (CFZ) at indicated concentrations.

Compound	anti-proliferative activity in combination with bortezomib (combination index, Chou-Talalay; CI below 1 = synergistic) (MM1.S cells)	apoptosis / cell killing in combination with bortezomib (KMS-12BM cells)	apoptosis / cell killing in combination with carfilzomib (KMS-12BM cells)
Nc1cccc2c1C(=O)N(C1CCC(=O)NC1=O)C2=O (stereo not drawn) [pomalidomide, reference compound]	synergistic	induced cell killing	induced cell killing
O=C1CC[C@H](N2Cc3c(OCc4ccc(CN5CCOCC5)cc4)cccc3C2=O)C(=O)N1 [Compound A-S, (S)-3-(4-((4-(morpholinomethyl)benzyl)oxy)-1-oxoisoindolin-2-yl)piperidine-2,6-dione]	synergistic	induced cell killing; also recorded: apoptosis induced	induced cell killing; also recorded: apoptosis induced
